Results reported in patent US10583084B2, “Liposomal formulations for delivery of nucleic acids” (RAMOT AT TEL-AVIV UNIVERSITY LTD., priority 2014, dated 2020).

Key:
[1] = physchem
[2] = lipid pKa of cationic lipids

Row | SMILES | pKa [1] | lipid pKa [2]
1 | CCCCC/C=C\C/C=C\CCCCCCCCC1(CCCCCCCC/C=C\C/C=C\CCCCC)OCC(CCN(C)C)O1 (centres unmarked) [DLin-KC2-DMA, 2,2-Dilinoleyl-4-(2-dimethylaminoethyl)-[1,3]-dioxolane] | ~6.7 | –
2 | CCCCC/C=C\C/C=C\CCCCCCCCOCC(CN(C)C)OCCCCCCCC/C=C\C/C=C\CCCCC (centres unmarked) [DLinDMA] | – | 6.8
